Here are results for 37 compounds from patent US20100184802A1, “Bicycloheteroaryl Compounds as P2X7 Modulators and Uses Thereof” (priority 2006, published 2010).

Data set [1] concerns the target T1, P2X7 receptor (IL-1β release from THP-1 cells) (Homo sapiens, UniProt Q99572).
T1 construct: host or cells: THP-1 cells differentiated with LPS and IFN-γ
T1 sequence (Q99572 1-595): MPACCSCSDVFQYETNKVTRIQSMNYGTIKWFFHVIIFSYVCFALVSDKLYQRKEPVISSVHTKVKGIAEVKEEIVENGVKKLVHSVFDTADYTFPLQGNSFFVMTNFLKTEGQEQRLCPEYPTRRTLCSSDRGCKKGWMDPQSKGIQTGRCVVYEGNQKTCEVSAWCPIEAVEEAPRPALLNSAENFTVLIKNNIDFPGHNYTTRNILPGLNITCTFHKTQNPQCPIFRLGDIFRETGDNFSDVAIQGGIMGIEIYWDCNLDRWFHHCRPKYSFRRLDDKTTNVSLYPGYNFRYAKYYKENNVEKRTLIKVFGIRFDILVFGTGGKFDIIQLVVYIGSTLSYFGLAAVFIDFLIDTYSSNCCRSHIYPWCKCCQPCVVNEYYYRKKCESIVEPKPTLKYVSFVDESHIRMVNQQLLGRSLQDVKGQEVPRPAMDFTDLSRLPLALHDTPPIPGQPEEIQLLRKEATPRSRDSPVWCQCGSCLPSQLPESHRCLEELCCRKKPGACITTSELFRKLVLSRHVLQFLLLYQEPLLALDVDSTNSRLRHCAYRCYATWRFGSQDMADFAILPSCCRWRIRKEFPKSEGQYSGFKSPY
The experiment in a line: IL-1β release assay in differentiated THP-1 cells stimulated with BzATP (Example 9). The class given is cell-based. The note with it: for inhibition at 0.3 µM / inhibition at 0.1 µM: read-out: IL-1β % Inhib. @ 0.3 or 0.1 μM; for IC50: released IL-1β as in Example 9, four parameter logistic fit; for inhibition at 0.1 µM: 0.1 μM concentration. On the procedure: The cells are then pretreated for 30 minutes with the compound of interest at the appropriate concentration in RPMI media containing 100 IU/mL penicillin, 100 ug/mL streptomycin. […] 30 uL of cell supernatant is then collected and IL-1β levels determined via ELISA (R&D systems Cat. #HSLB50) according to manufacturer's recommendations using the Tecan Safire plate reader. Background adjusted IL-1β levels of drug treated and non-treated cells are used to calculate the percent inhibition.
The compounds set forth in Table 1 were tested for activity in a cellular model as described herein. […] Measurements were made and IC50 values, presented in Table 2, below, were determined by fitting the data to a four parameter logistic equation using GraphPad Prism software (GraphPad Software, Inc). The equation may be expressed by the following formula:
Y=Bottom+(Top−Bottom)/(1+10̂((Log EC50−X)*HillSlope))
Where X is the logarithm of concentration, Y is the response and Y starts at Bottom and goes to Top with a sigmoid shape.

Data set [2] in a line: Half-life in human liver microsomes (HLM). The class given is in vitro ADME. The note with it: human liver microsomes (HLM, HL101); human liver microsomes 0.78 mg/mL, 1 μM compound, NADPH, pH 7.4, 37° C. On the technique in general: Liver microsomes are a subcellular fraction often used to study metabolism.
Description: Test compounds (1 μM) are incubated with 3.3 mM MgCl2 and 0.78 mg/mL HLM (HL101) in 100 mM potassium phosphate buffer (pH 7.4) at 37° C. on the 96-deep well plate. The reaction mixture is split into two groups, a non-P450 and a P450 group. NADPH is only added to the reaction mixture of the P450 group. An aliquot of samples of P450 group is collected at 0, 10, 30, and 60 min time point, where 0 min time point indicated the time when NADPH is added into the reaction mixture of P450 group. […] Collected aliquots are extracted with acetonitrile solution containing an internal standard. […] The compound concentration in supernatant is measured by LC/MS/MS system.
The half-life value is obtained by plotting the natural logarithm of the peak area ratio of compounds/internal standard versus time. The slope of the line of best fit through the points yields the rate of metabolism (k). This is converted to a half-life value using following equations:
Where [3] appears, read: 0.3 μM concentration, BzATP 250 uM.

Molecules are shown by their SMILES.

Broadly, the IC50 is the concentration at which inhibition is half-maximal. As usually defined, the half-life is the time needed for the level to fall by half in the phase considered. Low readings indicate fast loss, high ones slow loss. `O=C(CC12CC3CC(CC(C3)C1)C2)Nc1cccc2c(=O)n(CCO)ccc12` [Compound 511]: the inhibition at 0.3 µM in data set [1] (setting [3]) is above 76%. For the same compound, the IC50 in data set [1] stood at 1.34 nM. Also, the half-life at 1 μM in data set [2] is 27 min. As to `NC(=O)CN1CCc2c(NC(=O)CC34CC5CC(CC(C5)C3)C4)cccc2C1=O` [Compound 533], in data set [1] (setting [3]), the inhibition at 0.3 µM is above 76%. In addition, in data set [1], the concentration for half-maximal inhibition (IC50) amounted to 4.79 nM.

For the compound `CC(C)(O)Cn1ccc2c(NC(=O)[C@@]34C[C@@H]5C[C@@H](C[C@@H]3C5)C4)cccc2c1=O` [Compound 570], the inhibition at 0.1 µM in data set [1] (BzATP 250 uM) is 0 to 25%. As for `CC(=O)NCCn1ccc2c(NC(=O)CC3CCCCCC3)cccc2c1=O` [Compound 611, N-[2-(2-Acetylamino-ethyl)-1-oxo-1,2-dihydro-isoquinolin-5-yl]-2-cycloheptyl-acetamide], the inhibition at 0.3 µM in data set [1] (setting [3]) is 51 to 75%.

On to `NC(=O)CCn1ccc2c(NC(=O)CC34CC5CC(CC(C5)C3)C4)cccc2c1=O` [Compound 510], for which the inhibition at 0.3 µM in data set [1] (setting [3]) was above 76%. Further, the IC50 in data set [1] amounted to 1.04 nM. Regarding `CC1(C)CC(CC(=O)Nc2cccc3c(=O)n(CCO)ccc23)CC(C)(C)C1` [Compound 584, N-[2-(2-Hydroxy-ethyl)-1-oxo-1,2-dihydro-isoquinolin-5-yl]-2-(3,3,5,5-tetramethylcyclohexyl)-acetamide], in data set [1] (setting [3]), the inhibition at 0.3 µM is above 76%. In addition, in data set [1], the IC50 turned out to be 1.8 nM. On the same counts, the results for `CC(C)C(CO)n1ccc2c(NC(=O)CC3CCCCCC3)cccc2c1=O` (stereo not shown) [Compound 538] are above 76% and 1.86 nM. On the same counts, the results for `CC(C)(C)OC(=O)N1CCC(C(=O)Nc2cccc3c(=O)n(CCO)ccc23)CC1` [Compound 537] are 0 to 25% and above 1000 nM.

Turning to `CC(C)(C)OC(=O)N1CCC(CC(=O)Nc2cccc3c(=O)n(CCO)ccc23)CC1` [Compound 532], the inhibition at 0.3 µM in data set [1] (setting [3]) is 0 to 25%. Also, the IC50 in data set [1] was above 1000 nM. As for `CC(C)[C@H](CO)n1ccc2c(NC(=O)CC3CCCCCC3)cccc2c1=O` [Compound 591, 2-Cycloheptyl-N-[2-((R)-1-hydroxymethyl-2-methyl-propyl)-1-oxo-1,2-dihydro-isoquinolin-5-yl]-acetamide], the inhibition at 0.3 µM in data set [1] (setting [3]) was above 76%. Moreover, the IC50 in data set [1] came out at 3.42 nM.

With `CC1(C)CCCC(O)(CC(=O)Nc2cccc3c(=O)n(C(CO)CO)ccc23)C1` (stereo not shown) [Compound 553], the inhibition at 0.3 µM in data set [1] (setting [3]) lay within 51 to 75%. For the same compound, the IC50 in data set [1] was 203 nM. On the same counts, the results for `NC(=O)Cn1ccc2c(NC(=O)CC3(O)CCCCCC3)cccc2c1=O` [Compound 562] are 26 to 50% and 427 nM. `CC(C)[C@H](C(=O)NC1CC1)n1ccc2c(NC(=O)CC3CCCCCC3)cccc2c1=O` [Compound 595, (R)-2-[5-(2-Cycloheptyl-acetylamino)-1-oxo-1H-isoquinolin-2-yl]-N-cyclopropyl-3-methyl-butyramide]: the inhibition at 0.3 µM in data set [1] (setting [3]) is above 76%. In addition, in data set [1], the concentration for half-maximal inhibition (IC50) stood at 20.7 nM. For `O=C(CC1CCCCCC1)Nc1cccc2c(=O)n(C[C@H]3CCCN3)ccc12` [Compound 576], the inhibition at 0.3 µM in data set [1] (setting [3]) is above 76%.

On to `CC1(C)CCCC(O)(CC(=O)Nc2cccc3c(=O)n(CCO)ccc23)C1` (stereo not shown) [Compound 547], for which the inhibition at 0.3 µM in data set [1] (setting [3]) is 51 to 75%. Further, in data set [1], the half-maximal inhibitory concentration (IC50) came to 287 nM.

In the case of `O=C(CC1CCCCC1)Nc1cccc2c(=O)n(C(CO)CO)ccc12` [Compound 550], in data set [1] (setting [3]), the inhibition at 0.3 µM lay in the range of 51 to 75%. The half-maximal inhibitory concentration (IC50) in data set [1] is 266 nM. For `CC(C)(CO)n1ccc2c(NC(=O)CC34CC5CC(CC(C5)C3)C4)cccc2c1=O` [Compound 613, 2-Adamantan-1-yl-N-[2-(2-hydroxy-1,1-dimethyl-ethyl)-1-oxo-1,2-dihydro-isoquinolin-5-yl]acetamide], the inhibition at 0.3 µM in data set [1] (setting [3]) is above 76%. In addition, the IC50 in data set [1] came out at 3.78 nM. On to `C[C@H](CO)N1CCc2c(NC(=O)CC34CC5CC(C)(CC(C)(C5)C3)C4)cccc2C1=O` [Compound 534], for which the inhibition at 0.3 µM in data set [1] (setting [3]) is above 76%. For the same compound, in data set [1], the IC50 amounted to 11.5 nM. On the same counts, the results for `C[C@H](C(N)=O)n1ccc2c(NC(=O)CC34CC5CC(CC(O)(C5)C3)C4)cccc2c1=O` [Compound 581] are above 76% and 48.2 nM. In the case of `O=C(CC1CCCCCC1)Nc1cccc2c(=O)n(C(CO)CO)ccc12` [Compound 560, 2-Cycloheptyl-N-[2-(2-hydroxy-1-hydroxymethyl-ethyl)-1-oxo-1,2-dihydro-isoquinolin-5-yl]-acetamide], in data set [1] (setting [3]), the inhibition at 0.3 µM is above 76%. The 50% inhibitory concentration (IC50) in data set [1] is 75.6 nM. Consider `CC(C)[C@H](C(N)=O)n1ccc2c(NC(=O)CC34CC5CC(CC(C5)C3)C4)cccc2c1=O` [Compound 536], for which the “IL-1β % Inhib. @ 0.3 or 0.1 μM” value in data set [1] (setting [3]) is recorded as “++++ (compound exhibited 76% or greater inhibition at 0.3 μM concentration)”. The concentration for half-maximal inhibition (IC50) in data set [1] turned out to be 0.202 nM.

In the case of `CC1CNC(CN2CCc3c(NC(=O)CC45CC6CC(CC(C6)C4)C5)cccc3C2=O)CN1` (stereo not shown) [Compound 503], the inhibition at 0.1 µM in data set [1] (BzATP 250 uM) is above 76%. On the same count and under the same terms, under `CC(C)(O)Cn1ccc2c(NC(=O)CC3C[C@@H]4CC[C@H]3C4)cccc2c1=O` (stereo partly shown) [Compound 569] stands 26 to 50%. For the compound `CC(C)(O)Cn1ccc2c(NC(=O)C3C[C@@H]4CC[C@H]3C4)cccc2c1=O` (stereo partly shown) [Compound 571], in data set [1] (BzATP 250 uM), the inhibition at 0.1 µM was in the range of 26 to 50%. For the compound `C[C@H](CO)n1ccc2c(NC(=O)CC34CC5CC(C)(CC(C)(C5)C3)C4)cccc2c1=O` [Compound 525], the inhibition at 0.3 µM in data set [1] (setting [3]) is above 76%. Further, the IC50 in data set [1] was found to be 3.23 nM. On the same counts, the results for `CC(C)C[C@H](CO)n1ccc2c(NC(=O)CC3CCCCCC3)cccc2c1=O` [Compound 590] are above 76% and 8.3 nM. On to `O=C(CC1(O)CCCCCC1)Nc1cccc2c(=O)n(C[C@H]3CCCN3)ccc12` [Compound 578, 2-(1-Hydroxy-cycloheptyl)-N-(1-oxo-2-(R)-1-pyrrolidin-2-ylmethyl-1,2-dihydro-isoquinolin-5-yl)-acetamide], for which the inhibition at 0.3 µM in data set [1] (setting [3]) is above 76%. In addition, in data set [1], the IC50 stood at 111 nM.

For the compound `O=C(CC12CC3CC(CC(C3)C1)C2)Nc1cccc2c(=O)n(C[C@H]3CCCN3)ccc12` [Compound 506], the inhibition at 0.3 µM in data set [1] (setting [3]) is above 76%. Moreover, the half-inhibitory concentration (IC50) in data set [1] came to 1 nM. Taken in the same sequence, the figures for `CC12CC3CC(C)(C1)CC(CC(=O)Nc1cccc4c(=O)n(CC(N)=O)ccc14)(C3)C2` [Compound 523] were above 76% and 1.5 nM.

In the case of `C[C@H](C(=O)Nc1cccc2c(=O)n([C@H](C)C(N)=O)ccc12)C1CCCCCC1` [Compound 609], the inhibition at 0.3 µM in data set [1] (setting [3]) was above 76%. Besides, the half-maximal inhibitory concentration (IC50) in data set [1] was determined as 6.16 nM. With `C[C@H]1CC[C@H](C(=O)Nc2cccc3c(=O)n(CC4(O)CCCCC4)ccc23)CC1` [Compound 539], in data set [1] (BzATP 250 uM), the inhibition at 0.1 µM lay within 0 to 25%.

Take `C[C@H](C(=O)NC1CC1)n1ccc2c(NC(=O)CC34CC5CC(CC(C5)C3)C4)cccc2c1=O` [Compound 598, (R)-2-[5-(2-Adamantan-1-yl-acetyl-amino)-1-oxo-1H-isoquinolin-2-yl]-N-cyclopropyl-propionamide]: the inhibition at 0.3 µM in data set [1] (setting [3]) was above 76%. Besides, the 50% inhibitory concentration (IC50) in data set [1] stood at 0.698 nM. Taken in the same sequence, the figures for `C[C@@H](C(N)=O)n1ccc2c(NC(=O)CC34CC5CC(CC(O)(C5)C3)C4)cccc2c1=O` [Compound 574] were 0 to 25% and above 1000 nM. As to `CC(C)C[C@H](CO)n1ccc2c(NC(=O)CC34CC5CC(CC(C5)C3)C4)cccc2c1=O` [Compound 585, 2-Adamantan-1-yl-N-[2-((R)-1-hydroxymethyl-3-methyl-butyl)-1-oxo-1,2-dihydro-isoquinolin-5-yl]-acetamide], the inhibition at 0.3 µM in data set [1] (setting [3]) was above 76%. Further, in data set [1], the concentration for half-maximal inhibition (IC50) came to 1.38 nM. For `C[C@@H](C(N)=O)n1ccc2c(NC(=O)CC3CCCCCC3)cccc2c1=O` [Compound 554], the inhibition at 0.3 µM in data set [1] (setting [3]) was above 76%. In data set [1], the concentration for half-maximal inhibition (IC50) is 12.3 nM.

As for `CC(C)[C@H](C(N)=O)n1ccc2c(NC(=O)CC34CC5CC(CC(C5)C3)C4)cccc2c1=O` [Compound 528], the inhibition at 0.3 µM in data set [1] (setting [3]) was above 76%. Also, the half-inhibitory concentration (IC50) in data set [1] amounted to 0.181 nM. `O=C(CC1CCCCCC1)Nc1cccc2c(=O)n(C[C@@H]3CCCN3)ccc12` [Compound 577]: the inhibition at 0.3 µM in data set [1] (setting [3]) is above 76%.
